Laboratory results: PubChem BioAssay AID1259407 (Chemical Carcinogenesis Research Information System (CCRIS), 2018)
Calls of active or inactive are those of the source. The rule behind the calls is not given here.

Tested on: CCRIS mutagenicity, Ames/micronucleus/aberration tests
Assay: CCRIS mutagenicity studies
[1] = Test System: AMES SALMONELLA TYPHIMURIUM, Strain/Indicator: TA100, Metabolic Activation: NONE, Method: STANDARD PLATE
[2] = Test System: AMES SALMONELLA TYPHIMURIUM, Strain/Indicator: TA1535, Metabolic Activation: NONE, Method: STANDARD PLATE
[3] = Test System: AMES SALMONELLA TYPHIMURIUM, Strain/Indicator: TA98, Metabolic Activation: NONE, Method: STANDARD PLATE
[4] = Test System: AMES SALMONELLA TYPHIMURIUM, Strain/Indicator: TA98, Metabolic Activation: RAT, LIVER, S-9, AROCLOR 1254, Method: STANDARD PLATE

[Cl][Pb][Cl]
mutagenic call (End Point: IN VITRO MICRONUCLEUS, Test System: HAMSTER V79 CELLS, Metabolic Activation: NONE): active; positive (aneugenic above 1.1 um)
mutagenic call (Test System: CHINESE HAMSTER OVARY, Strain/Indicator: CHO-AS52/6-THIOGUANINE, Metabolic Activation: NONE): active; positive
mutagenic call (Test System: CHINESE HAMSTER V-79, Strain/Indicator: SP5 V-79 (HPRT)/6-THIOGUANINE, Metabolic Activation: NONE, Method: STANDARD PLATE): inactive; negative
mutagenic call (Test System: CHINESE HAMSTER V-79, Strain/Indicator: SPD8 V-79 (HPRT)/6-THIOGUANINE, Metabolic Activation: NONE, Method: STANDARD PLATE): inactive; negative

C[C@@H]1O[C@@H]1C
mutagenic call (Test System: AMES SALMONELLA TYPHIMURIUM, Strain/Indicator: TA100, Metabolic Activation: NONE, Method: FLASK VAPORIZATION): active; positive
mutagenic call [1]: active; positive
mutagenic call (Test System: AMES SALMONELLA TYPHIMURIUM, Strain/Indicator: TA100, Metabolic Activation: RAT, LIVER, S-9, AROCLOR 1254, Method: FLASK VAPORIZATION): active; positive
mutagenic call (Test System: AMES SALMONELLA TYPHIMURIUM, Strain/Indicator: TA1535, Metabolic Activation: NONE, Method: FLASK VAPORIZATION): active; positive
mutagenic call [2]: active; positive
mutagenic call (Test System: AMES SALMONELLA TYPHIMURIUM, Strain/Indicator: TA1535, Metabolic Activation: RAT, LIVER, S-9, AROCLOR 1254, Method: FLASK VAPORIZATION): active; positive

C[C@H]1C=C(C=O)[C@H](C=O)[C@@H](O)[C@@H]2CC(C)(C)C[C@@H]21
mutagenic call [3]: inactive; negative
mutagenic call [1]: inactive; negative
mutagenic call (Test System: AMES SALMONELLA TYPHIMURIUM, Strain/Indicator: TA2637, Metabolic Activation: NONE, Method: STANDARD PLATE): inactive; negative

CC(C)[C@@](O)(C(=O)OCC1=CCN2CC[C@@H](O)[C@@H]12)[C@H](C)O
mutagenic call (Test System: AMES SALMONELLA TYPHIMURIUM, Strain/Indicator: TA100, Metabolic Activation: HAMSTER, LIVER, S-9, PCB, Method: PREINCUBATION): inactive; negative
mutagenic call (Test System: AMES SALMONELLA TYPHIMURIUM, Strain/Indicator: TA100, Metabolic Activation: RAT, LIVER, S-9, PCB, Method: PREINCUBATION): inactive; negative

Cc1cc2c(nc(N)n2C)c2ncc(-c3ccccc3)nc12
mutagenic call [4]: active; positive

CC(C)(C)Br
mutagenic call (Test System: AMES SALMONELLA TYPHIMURIUM, Strain/Indicator: TA100, Metabolic Activation: NONE, Method: DESICCATOR): active; positive
mutagenic call (Test System: AMES SALMONELLA TYPHIMURIUM, Strain/Indicator: TA100, Metabolic Activation: RAT, LIVER, S-9, AROCLOR 1254, Method: DESICCATOR): active; positive

CC1(C)CC(C(N)=O)C(C)(C)N1[O] (centres undefined)
mutagenic call [1]: inactive; negative

C=CC(=O)OCC(C)(C)COC(=O)C=C
mutagenic call [3]: inactive; negative
mutagenic call [4]: inactive; negative
mutagenic call (Test System: AMES SALMONELLA TYPHIMURIUM, Strain/Indicator: TA98, Metabolic Activation: RAT, LIVER, S-9, SODIUM PHENOBARBITAL, Method: STANDARD PLATE): inactive; negative
mutagenic call [1]: inactive; negative
mutagenic call (Test System: AMES SALMONELLA TYPHIMURIUM, Strain/Indicator: TA100, Metabolic Activation: RAT, LIVER, S-9, AROCLOR 1254, Method: STANDARD PLATE): inactive; negative
mutagenic call (Test System: AMES SALMONELLA TYPHIMURIUM, Strain/Indicator: TA100, Metabolic Activation: RAT, LIVER, S-9, SODIUM PHENOBARBITAL, Method: STANDARD PLATE): inactive; negative
mutagenic call [2]: inactive; negative
mutagenic call (Test System: AMES SALMONELLA TYPHIMURIUM, Strain/Indicator: TA1535, Metabolic Activation: RAT, LIVER, S-9, AROCLOR 1254, Method: STANDARD PLATE): inactive; negative
mutagenic call (Test System: AMES SALMONELLA TYPHIMURIUM, Strain/Indicator: TA1535, Metabolic Activation: RAT, LIVER, S-9, SODIUM PHENOBARBITAL, Method: STANDARD PLATE): inactive; negative
mutagenic call (Test System: AMES SALMONELLA TYPHIMURIUM, Strain/Indicator: TA1537, Metabolic Activation: NONE, Method: STANDARD PLATE): inactive; negative
mutagenic call (Test System: AMES SALMONELLA TYPHIMURIUM, Strain/Indicator: TA1537, Metabolic Activation: RAT, LIVER, S-9, AROCLOR 1254, Method: STANDARD PLATE): inactive; negative
mutagenic call (Test System: AMES SALMONELLA TYPHIMURIUM, Strain/Indicator: TA1537, Metabolic Activation: RAT, LIVER, S-9, SODIUM PHENOBARBITAL, Method: STANDARD PLATE): inactive; negative
mutagenic call (Test System: AMES SALMONELLA TYPHIMURIUM, Strain/Indicator: TA1538, Metabolic Activation: NONE, Method: STANDARD PLATE): inactive; negative
mutagenic call (Test System: AMES SALMONELLA TYPHIMURIUM, Strain/Indicator: TA1538, Metabolic Activation: RAT, LIVER, S-9, AROCLOR 1254, Method: STANDARD PLATE): inactive; negative
mutagenic call (Test System: AMES SALMONELLA TYPHIMURIUM, Strain/Indicator: TA1538, Metabolic Activation: RAT, LIVER, S-9, SODIUM PHENOBARBITAL, Method: STANDARD PLATE): inactive; negative
